Reference: BindingDB's records for doi:10.1021/jm00077a015 (Universität Regensburg, 1994)
pIC50: −log10 of the molar value.

target: lipid peroxidation in brain phospholipid liposomes (Bos taurus); assay: Tested for the inhibition of lipid peroxidation in bovine brain phospholipid liposomes

| pIC50 | Structure (SMILES) |
| --- | --- |
| 5.10 | O=C1c2c(O)cccc2C(=Cc2ccc(O)cc2)c2cccc(O)c21 [1,8-Dihydroxy-10-(4-hydroxy-benzylidene)-10H-anthracen-9-one] |
| 4.85 | O=C1c2c(O)cccc2C(=Cc2ccc([N+](=O)[O-])cc2)c2cccc(O)c21 [1,8-dihydroxy-10-(4-nitrobenzylidene)anthracen-9(10H)-one] |
| 5.70 | O=C1c2c(O)cccc2C(=Cc2ccc(O)c(O)c2)c2cccc(O)c21 [10-(3,4-dihydroxybenzylidene)-1,8-dihydroxyanthracen-9(10H)-one] |
| 5.10 | O=C1c2c(O)cccc2C(=Cc2ccccc2)c2cccc(O)c21 [10-benzylidene-1,8-dihydroxyanthracen-9(10H)-one] |

The next lines start with the molecule.

| Structure (SMILES) | pIC50 |
| --- | --- |
| O=C1c2c(O)cccc2C(=Cc2cc(O)c(O)c(O)c2)c2cccc(O)c21 [1,8-Dihydroxy-10-(3,4,5-trihydroxy-benzylidene)-10H-anthracen-9-one] | 5.70 |
| CCCC(=O)C1c2cccc(O)c2C(=O)c2c(O)cccc21 [10-Butyryl-1,8-dihydroxy-10H-anthracen-9-one(Butantrone)] | 5.40 |
| O=C1c2c(O)cccc2C(C(=O)Cc2ccc(O)c(O)c2)c2cccc(O)c21 [10-[2-(3,4-Dihydroxy-phenyl)-acetyl]-1,8-dihydroxy-10H-anthracen-9-one] | 6.00 |
